Laboratory results from PMC5515982, “Hair analysis for the biomonitoring of pesticide exposure: comparison with blood and urine in a rat model” (Archives of Toxicology, 2016).

Key:
[1] = Concentration of pesticides and metabolites in hair of rats after 90-day gavage exposure to a pesticide mixture; format: in vivo, rat; conditions: for Slope (linear fit), concentration in hair versus level of exposure: exposure expressed as mg/kg per day, concentration as pg/mg, detected values only
Method: (§1) Eight rats were randomly assigned to each of the experimental groups. A low-calorie water gel that contained the pesticides was administered via gavage to these rats three times per week for 90 days. The doses of the pesticides mixture used for exposure were 4, 10, 20, 40, 100, 200, and 400 µg/kg of body weight. The exposure range was set as follows: The lowest dose was the lowest level allowing the detection of pesticides in hair after a 90-day exposure, based on preliminary experiments not detailed here. Testing lower levels would not have been relevant because some compounds would not be detected anymore (analytical limitation). In addition, for some other compounds, no differences were detected in the current experiment between the lowest level of exposure and the background exposure of the controls. The highest dose was set according to toxicity of compounds, which corresponded to 1/20 of the lowest LD50 (carbofuran). The animals were weighed before each administration in order to adapt the amount of pesticide-containing mixture to the animals’ weight.
(§2) The animals were shaved before the experiment began to ensure that the hair collected at the end of the study accurately reflected the 90-day period of exposure. White and black hairs were collected separately, placed in aluminum foil, and stored at −20 °C until analysis. Blood was collected in EDTA tube from the tail vein, 3 h after oral administration on Day 90. Each sampling (500–750 µL) was immediately centrifuged at 5000×g for 3 min at room temperature, and plasma was separated and stored at −80 °C before analysis. For urine collection, the rats were placed in individual metabolic cages (Type 304 stainless steel, Techniplast, Zwaag, Netherlands) immediately after gavage for 24 h (from Day 88 to Day 89). The urine was collected in refrigerated tubes over a 24-h period and was weighed before storage at −20 °C.
(§3) Depending on the compounds, only parent pesticides, only metabolites, or both parent and metabolites were analyzed in the biological matrices. The chemicals were analyzed as previously described (Chata et al. [2016]; Hardy et al. [2015]). Despite the different nature of the biological matrices analyzed (liquid vs. solid), method protocols were developed to ensure similarity so they could be reliably compared to the information obtained from each matrix, thereby ensuring that differences were not likely attributable to analytical bias. […] Because analytical background noise was absent from the chromatograms because tandem mass spectrometry was used, the approaches based on background noise for determining the limit of detection (LOD) were not applicable. The LOD was therefore determined as the lowest concentration that was detected in the samples analyzed during this study. Selectivity was ensured by analyte retention time and by the quantification transition to confirmation transition ratio that had to be lower than the 20% difference from the ratio obtained with standard compounds. The LOD ranged from 0.02 pg/mg for β-endosulfan to 2.7 pg/mg for dichlorodiphenyltrichloroethane (p,p′-DDT) in hair, from 0.2 pg/mL for trifluralin to 13.6 ng/mL for 2-isopropoxyphenol (2-IPP) in urine, and from 2.4 pg/mL for β-endosulfan to 679 pg/mL for p,p′-DDT in plasma. Because the analysis of parent pesticides and metabolites was conducted on the same hair sample, the addition of parent organophosphate isotope-labeled analog standards was not possible because their degradation into non-labeled dialkyl phosphate (DAP) during the analytical procedure would have hindered the analysis of DAP due to exposure. In hair, only organophosphate metabolites (not parents) were therefore quantified, and only qualitative results were obtained for parents.
(§4) The association between the level of exposure and the analyte concentration in the matrix (i.e., hair, urine, and plasma) was assessed by the Pearson product-moment correlation coefficient (R Pearson). […]

[2] = Concentration of pesticides and metabolites in 24-h urine of rats after 90-day gavage exposure to a pesticide mixture; format: in vivo, rat; conditions: for Slope (linear fit), concentration in urine versus level of exposure: exposure expressed as mg/kg per day, concentration as ng/mL, detected values only; for Concentration range in urine (detection): ND = not detected, whatever the level of exposure
Method: as §1, §2, §3, §4

[3] = Influence of hair pigmentation: concentration in white hair versus pigmented hair; format: in vivo, rat; conditions: slope close to 1 = poor influence of pigmentation
Method: as §2
The influence of hair pigmentation on pesticide incorporation was assessed by comparing the concentration detected in white hair versus pigmented hair which were collected and analyzed separately from each animal. […] For the majority of the chemicals tested during the current study, pigmentation seemed to have a very limited effect on the concentration in hair, and only few compounds seemed to be pigmentation sensitive.

[4] = ref Timchalk et al. [2007], cited from earlier work
[5] = Concentration of pesticides and metabolites in plasma of rats after 90-day gavage exposure to a pesticide mixture; format: in vivo, rat; conditions: for Slope (linear fit), concentration in plasma versus level of exposure: exposure expressed as mg/kg per day, concentration as ng/mL, detected values only
Method: as §1, §2, §3, §4

SMILES	Slope (linear fit), concentration in hair versus level of exposure [1]	Slope (linear fit), concentration in urine versus level of exposure ([2]; urine)	Slope, concentration in white hair versus pigmented hair [3]	Slope (linear fit), concentration in plasma versus level of exposure ([5]; plasma)	also measured
CCOP(=O)(O)OCC [DEP, diethyl phosphate]	4.54	2.0 E + 06	0.892	–	Half-life for α-phase in rat blood ([4]; after oral dosing of chlorpyrifos): 12 min
CCOP(=S)(OCC)Oc1nc(Cl)c(Cl)cc1Cl [Chlorpyrifos]	–	–	–	1.24	Mean concentration in plasma ([5]; control group): 0.15 ± 0.01 ng/mL; Mean concentration in plasma ([5]; most exposed group): 0.41 ± 0.09 ng/mL; Metabolization of the parent compound [4]: 0.2 h
CCCC1COC(Cn2cncn2)(c2ccc(Cl)cc2Cl)O1 (stereo not shown) [Propiconazole]	6.47	–	0.825	–	Concentration range in urine (detection) [2]: not detected; Concentration range in plasma (detection) ([5]; ND = not detected, whatever the level of exposure): not detected
N#Cc1nn(-c2c(Cl)cc(C(F)(F)F)cc2Cl)c(N)c1S(=O)(=O)C(F)(F)F [Fipronil sulfone]	772	10 650	1.114	976	–
CC1(C)Cc2cccc(O)c2O1 [Carbofuran phenol]	35.10	1.0 E + 06	1.109	1.73	–
Clc1ccc(C(c2ccc(Cl)cc2)C(Cl)Cl)cc1 [p,p′-DDD, p,p′-dichlorodiphenyldichloroethane]	24.0	–	0.673	13.1	Exposure level from which detected in hair [1]: 40 µg/kg per day; Concentration range in urine (detection) [2]: not detected; Exposure level from which detected in plasma ([5]; plasma): 40 µg/kg
ClC(Cl)=C(c1ccc(Cl)cc1)c1ccc(Cl)cc1 [p,p′-DDE, p,p′-dichlorodiphenyldichloroethylene]	273.5	–	1.287	289	Exposure level from which detected in urine ([2]; urine): 200 µg/kg
O=C(O)c1cccc(Oc2ccccc2)c1 [3-PBA, 3-phenoxybenzoic acid]	7.08	1.5 E + 05	1.070	422	–
